Data: patent publication US20160199364A1, “SEIZURE TREATMENT COMPOSITIONS AND METHODS” (Creighton University, priority 2015, published 2016)

Tests used:
[1] = test system: mitochondrial respiratory complex I (MRCI); assay: Oxygen polarography of isolated cortical mitochondria after in vivo treatment; parameters: species or system mouse; conditions: Kv1.1KO mice treated in vivo (pioglitazone 10 mg/kg/day i.p. or KD)
Method: (§1) Dietary and pharmacological treatments. […] For dietary experiments involving Kv1.1WT and Kv1.1KO mice, drinking water contained either 0.0323% DMSO vehicle or GW9662 ([…]) to obtain an average dosage of 1.062±0.038 mg/kg/day (n=18). There was no difference in the average daily water consumption or resulting GW9662 dosage between experimental groups (see FIG. 2H). […] Three hours after the last pioglitazone injection, mice were euthanized and brains processed for western blot, electrophysiology, or mitochondria experiments.
Mitochondrial isolation and oxytherm polarography. Mice were anesthetized with isoflurane and cortical tissue was quickly micro-dissected on ice. Tissue was homogenized in isolation buffer (5×V/V in mM: 215 mannitol, 75 sucrose, 1 EGTA 20 HEPES and 0.1% BSA, pH 7.2 adjusted with KOH) and mitochondria were isolated using differential centrifugation. Isolated mitochondria were resuspended in isolation buffer without EGTA. Protein concentrations were determined with Bradford assay. […] Oxygen polarography was measured using a standard Clark-type electrode (Hanstech Instruments, Ltd., Norfolk, England). […] Only samples with a respiratory control ratio greater than 4 were analyzed. Unbiased assessment of the rate of oxygen consumption was determined using computer-generated line of best-fit algorithm and nmol of oxygen mg^−1 min^−1 was calculated.

[2] = test system: hippocampal mossy fiber-CA3 synapse and CA3 network; assay: Acute hippocampal slice multielectrode array recordings after in vivo treatment; parameters: species or system mouse; conditions: Kv1.1KO mice treated in vivo (pioglitazone 10 mg/kg/day i.p. or KD), hippocampal slices
Method: as §1
Acute hippocampal slice preparation and multielectrode array recordings. […] Spontaneous and evoked extracellular potentials were recorded with Mobius v2 software (Witwerx Inc., Tustin, Calif., USA) and acquired at a 20 kHz sampling rate with a bandwidth of 0.1 Hz-10 kHz. Post-synaptic field potentials and short-term plasticity of the mossy fiber (MF)-CA3 synapse were obtained by successive paired stimulations (50 ms inter-stimulus interval, 50% maximal intensity) of Dentate granule cell mossy fibers located in the hilar region and recorded in CA3 stratum lucidum. Paired pulse facilitation was calculated by dividing the slope (10-90%) of stimulation 2 by the slope of stimulation 1 and presented as the percent above stimulation 1. […]

Body weight = type: in vivo, mouse; conditions: pioglitazone 10 mg/kg/day i.p., five days; Kv1.1WT or Kv1.1KO mice
[3] = test system: spontaneous recurrent seizures in epileptic Kv1.1 knockout (KO) mice; assay: Spontaneous recurrent seizures by 24 hr video-EEG (seizure incidence, seizure burden index); type: in vivo, mouse
Method: as §1
Intracranial electroencephalography electrode implantation and seizure analysis. On P27, mice underwent surgical implantation of electrodes. Mice were maintained under isoflurane anesthesia and normothermic conditions. One ground (1.5 mm anterior lamba, 1.5 mm lateral) and two subdural (1 mm posterior Bregma, 1.5 mm bilateral) intracranial cortical electroencephalographic (iEEG) electrodes were implanted, secured, and attached to a headmount. […] EEG recordings were acquired with a 250 Hz sampling rate and band-pass filtered between 0.5 and 40 Hz. During seizure monitoring, mice were single-housed in hexagon cages. EEG recordings were imported into Spike2 v6-7 software (Cambridge Electronic Design, Cambridge, England) for initial seizure identification using time-frequency analysis. […] Incidence and severity of each seizure was scored for the first 15 minutes of each hour during the time period of highest seizure occurrence for Kv1.1KO mice (00:00-08:00). Seizure severity was scored using a modified Racine scale: 0—normal; 1—myoclonic jerk or “pop;” 2—side-to-side head movement; 3—forelimb/hindlimb clonus, tail extension, a single rearing event; 4—continuous rearing and falling; 5—severe tonic-clonic seizures. To weigh the incidence and severity of seizures, seizure burden index (SBI) scores were calculated using the equation: SBI=[Σ(σiγi)]/ε, where σ indicates the severity; i indicates each stage of seizure (1-5); γ is the incidence; and ε indicates the total number of epochs scored.

| Structure (SMILES) | improvement of mitochondrial respiration (MRCI State III) [1] [%] | attenuation of HFO (high frequency oscillation) incidence ([2]; CA3 network) [%] | increase of mossy fiber paired pulse facilitation [2] [%] | body weight (Body weight) | KD anti-seizure efficacy ([3]; GW9662 ~1 mg/kg/day co-administered throughout KD treatment, Kv1.1KO mice) | Kv1.1KO seizures (worsening) ([3]; GW9662 ~1 mg/kg/day in drinking water, Kv1.1KO mice) | induction of spontaneous seizures in WT mice ([3]; GW9662 ~1 mg/kg/day in drinking water, WT mice) |
| --- | --- | --- | --- | --- | --- | --- | --- |
| CCc1ccc(CCOc2ccc(CC3SC(=O)NC3=O)cc2)nc1 (stereo not shown) [pioglitazone] | ~80 | ~60 | ~45 | did not change |  |  |  |
| O=C(Nc1ccccc1)c1cc([N+](=O)[O-])ccc1Cl [GW9662] |  |  |  |  | prevented | did not worsen | did not |
